This is an account of results in US6579899B1, “Composition for treatment of stress” (Massachusetts Institute of Technology, priority 1998, dated 2003).

Assay [1] deals with Sprague-Dawley rats. Briefly: stress related eating (clamp tightened on the tail) in rats. The format is in vivo, rat. The conditions noted are these: for Stress Eating, relative amount with 0 mg/kg as 100% / Stressed Rats, average amount of food consumed per rat / Stress Eating / Control Rats, average amount of food consumed per rat: 8 hours; for Stressed Rats, average amount of food consumed per rat: clamp tightened on the tail; for Stress Eating: stressed minus control rats; for stress-related eating: stressed rats, 1-10 mg/kg; for Control Rats, average amount of food consumed per rat: untightened clamp. As to the method: The effect of the hydrochloride salt of 6-chloro-2-(1-piperazinyl)pyrazine (MK-212, which is obtained from Merck & Co., Inc. Whitehouse Station, N.J.), on stress related eating in animals is determined through the observation of the effect of experimental compounds on stress-related eating in adult Sprague-Dawley rats. These rats are widely used as a recognized animal model useful in predicting the effect of serotoninergic drugs in humans.
In these experiments, a group of 5 adult female and 5 adult male Sprague-Dawley rats weighing between 200 and 250 grams each are used as control animals. An untightened clamp is placed on the tail of these animals. The untightened clamp provides the unstressed condition. Each animal is placed in an individual cage and allowed free access to food. The amount of food consumed is determined at 2, 4 and 8 hours after the initiation of the trial. A similar group of rats has a clamp tightened on the tail. The amount of food consumed by this stressed group of rats is shown in the 0 mg/kg column. […] similar groups of stressed rats are injected with 1, 2, 5, or 10 mg/kg body weight of MK-212 one hour before initiation of the experiment.
The relative amounts of stress eating with the amount at 0 mg/kg MK-212 as 100% is also shown in the Stress Eating row. The preferred daily dose of MK-212 is about 1 mg/kg body weight to about 10 mg/kg body weight.

For assay [2], the system named is obese, stressed patients. As to the kind of experiment: CES-D test of current levels of emotional distress in patients. The format is in vivo, human. The text has this:
(§1) A subgroup of obese individuals is identified, which individuals describe themselves as being unable to control their eating and who attempt to continue on a weight-reducing diet when experiencing emotional distress. […]
(§2) Objective measurements of emotional distress are made in some patients using the CES-D (Center for […] Depression Form) test, which measures current levels of emotional distress (Radloff, et al., The CES-D Scale: A Self Report Depression Scale for Research in the General Population Applied Psychological Measurement 1: 385-401, 1977); and the POMS (Profile of Mood States test, that assesses tension, depression, anger and confusion (McNair, et al., Profile of Mood States Manual;San Diego: Educational and Industrial Testing Service, 1971); both of these references are hereby incorporated by reference in their entirety. These tests are also given monthly during the treatment period. At the same time, patients also complete questionnaires that ask the patients to rate their appetite and hunger, and also to rate their tendency to eat in response to a variety of emotional and stressful triggers. The patients are also weighed monthly.

For assay [3], the system named is obese, stressed patients. As to the kind of experiment: questionnaire rating appetite and hunger. The class given is in vivo, human. More on the design: Appetite and Cravings: scale not given here.
Excerpt: as §1, §2

Assay [4] relates to obese, stressed patients. As to the kind of experiment: questionnaire rating tendency to eat in response to emotional and stressful triggers. The class given is in vivo, human. Details: Emotional Triggers: scale not given here.
Excerpt: as §1, §2

[5] abbreviates: 1 mg/kg injected one hour before.
Where [6] appears, read: 2 mg/kg injected one hour before.
The mark [7] stands for this setting: 5 mg/kg injected one hour before.
Setting [8] is: 10 mg/kg injected one hour before.
Where [9] appears, read: patient nine, 100 mg/day in divided doses, Month 1, baseline 9.
The mark [10] stands for this setting: patient nine, 100 mg/day in divided doses, Month 2, baseline 9.
Where [11] appears, read: patient nine, 100 mg/day in divided doses, Month 3, baseline 9.
Where [12] appears, read: patient nine, 100 mg/day in divided doses, Month 4, baseline 9.

Counter-ions that a name gives are not always drawn.

“(S)-2-(Chloro-5-fluoro-indol-1-yl)-1-methylethylamine [Ro 60-0332/ORG 35035]”: the “Stress Eating, relative amount with 0 mg/kg as 100%” value in assay [1] (1 mg/kg) is given as “(103%)”; in assay [1] (2 mg/kg), “(28%)”; in assay [1] (5 mg/kg) it was “(17%)”; in assay [1] (10 mg/kg), “(13%)”. For the same compound, the “Stressed Rats, average amount of food consumed per rat” value (“Stressed Rats … per rat” for short) came out at 4.87 g in assay [1] (setting [5]), 2.19 g in assay [1] (setting [6]), 1.83 g in assay [1] (setting [7]) and 1.74 g in assay [1] (setting [8]). In addition, the “Stress Eating” value worked out at 3.58 g in assay [1] (1 mg/kg), 0.99 g in assay [1] (2 mg/kg), 0.60 g in assay [1] (5 mg/kg) and 0.46 g in assay [1] (10 mg/kg). Besides, the “stress-related eating” value in assay [1] is given as “reduces stress-related eating”. Besides, the “Control Rats, average amount of food consumed per rat” value (from here on “Control Rats … per rat”) in assay [1] (setting [5]) is 1.29 g; in assay [1] (setting [6]) it was 1.20 g; in assay [1] (setting [7]), 1.21 g; in assay [1] (setting [8]), 1.28 g.

Take `O=c1n(CCCN2CCN(c3cccc(Cl)c3)CC2)nc2ccccn12` [trazodone hydrochloride]: the “Mood Scores CES-D” value in assay [2] (setting [9]) is recorded as 16; in assay [2] (setting [10]), 16; in assay [2] (setting [11]), 10; in assay [2] (setting [12]) it was 1. Besides, the “Appetite and Cravings” value in assay [3] (setting [9]) worked out at 5; in assay [3] (setting [10]) it was 5; in assay [3] (setting [11]) it was 3; in assay [3] (setting [12]), 5. The “Emotional Triggers” value in assay [4] (patient nine, 100 mg/day in divided doses, Month 1, baseline 12) turned out to be 12; in assay [4] (patient nine, 100 mg/day in divided doses, Month 2, baseline 12), 9; in assay [4] (patient nine, 100 mg/day in divided doses, Month 3, baseline 12), 5; in assay [4] (patient nine, 100 mg/day in divided doses, Month 4, baseline 12) it was 3.

As to `Clc1cncc(N2CCNCC2)n1` [MK-212, 6-chloro-2-(1-piperazinyl)pyrazine], the “Stress Eating, relative amount with 0 mg/kg as 100%” value was “(83%)” in assay [1] (1 mg/kg), “(76%)” in assay [1] (2 mg/kg), “(25%)” in assay [1] (5 mg/kg) and “(0%)” in assay [1] (10 mg/kg). Also, the “Stressed Rats … per rat” value in assay [1] (setting [5]) was 4.14 g; in assay [1] (setting [6]), 3.78 g; in assay [1] (setting [7]) it was 2.01 g; in assay [1] (setting [8]) it was 0.97 g. The “Stress Eating” value in assay [1] (1 mg/kg) is reported as 2.82 g; in assay [1] (2 mg/kg), 2.58 g; in assay [1] (5 mg/kg) it was 0.85 g; in assay [1] (10 mg/kg) it was 0.0 g. In assay [1], the “stress-related eating” value was “reduces stress-related eating”. Besides, the “Control Rats … per rat” value in assay [1] (setting [5]) was 1.32 g; in assay [1] (setting [6]), 1.20 g; in assay [1] (setting [7]) it was 1.16 g; in assay [1] (setting [8]), 1.03 g.

`Cc1ccc2c(c1)-c1c(ccn1C[C@H](C)N)C2(C)C` [Ro 60-175/ORG 35030, (S)-2-(4,4,7-trimethyl-1,4-dihydro-indol (1,2-B)pyrrol-1-yl)-1-methylethylamine]: the “Stress Eating, relative amount with 0 mg/kg as 100%” value in assay [1] (1 mg/kg) is on record as “(74%)”; in assay [1] (2 mg/kg), “(4%)”; in assay [1] (5 mg/kg), “(3%)”; in assay [1] (10 mg/kg), “(1%)”. Also, the “Stressed Rats … per rat” value in assay [1] (setting [5]) was found to be 3.66 g; in assay [1] (setting [6]), 1.43 g; in assay [1] (setting [7]), 1.30 g; in assay [1] (setting [8]), 1.16 g. Moreover, the “Stress Eating” value is 2.38 g in assay [1] (1 mg/kg), 0.13 g in assay [1] (2 mg/kg), 0.10 g in assay [1] (5 mg/kg) and 0.03 g in assay [1] (10 mg/kg). In addition, in assay [1], the “stress-related eating” value was “reduces stress related eating”. Further, the “Control Rats … per rat” value in assay [1] (setting [5]) stood at 1.28 g; in assay [1] (setting [6]), 1.30 g; in assay [1] (setting [7]), 1.20 g; in assay [1] (setting [8]), 1.13 g.

On to `COCCCC/C(=N\OCCN)c1ccc(C(F)(F)F)cc1` [fluvoxamine maleate], for which the “Mood Scores CES-D” value was 26 in assay [2] (patient three, 50 rising to 150 mg/day, Month 1, baseline 23); 16 in assay [2] (patient three, 50 rising to 150 mg/day, Month 2, baseline 23); 15 in assay [2] (patient three, 50 rising to 150 mg/day, Month 3, baseline 23); 17 in assay [2] (patient three, 50 rising to 150 mg/day, Month 4, baseline 23). For the same compound, the “Appetite and Cravings” value in assay [3] (patient three, 50 rising to 150 mg/day, Month 1, baseline 18) was 16; in assay [3] (patient three, 50 rising to 150 mg/day, Month 2, baseline 18) it was 11; in assay [3] (patient three, 50 rising to 150 mg/day, Month 3, baseline 18) it was 12; in assay [3] (patient three, 50 rising to 150 mg/day, Month 4, baseline 18), 14. In addition, the “Emotional Triggers” value in assay [4] (patient three, 50 rising to 150 mg/day, Month 1, baseline 34) was determined as 27; in assay [4] (patient three, 50 rising to 150 mg/day, Month 2, baseline 34) it was 30; in assay [4] (patient three, 50 rising to 150 mg/day, Month 3, baseline 34), 20; in assay [4] (patient three, 50 rising to 150 mg/day, Month 4, baseline 34), 24.

In the case of `CN(C)CCC=C1c2ccccc2CCc2ccccc21` [amitriptyline hydrochloride], the “Mood Scores CES-D” value in assay [2] (patient twelve, 75 then 100 mg/day, Month 1, baseline 29) was 22; in assay [2] (patient twelve, 75 then 100 mg/day, Month 2, baseline 29) it was 20; in assay [2] (patient twelve, 75 then 100 mg/day, Month 3, baseline 29), 23; in assay [2] (patient twelve, 75 then 100 mg/day, Month 4, baseline 29) it was 18. Further, the “Appetite and Cravings” value in assay [3] (patient twelve, 75 then 100 mg/day, Month 1, baseline 19) is recorded as 16; in assay [3] (patient twelve, 75 then 100 mg/day, Month 2, baseline 19) it was 8; in assay [3] (patient twelve, 75 then 100 mg/day, Month 3, baseline 19), 13; in assay [3] (patient twelve, 75 then 100 mg/day, Month 4, baseline 19), 8. Also, the “Emotional Triggers” value in assay [4] (patient twelve, 75 then 100 mg/day, Month 1, baseline 25) is given as 22; in assay [4] (patient twelve, 75 then 100 mg/day, Month 2, baseline 25), 13; in assay [4] (patient twelve, 75 then 100 mg/day, Month 3, baseline 25), 5; in assay [4] (patient twelve, 75 then 100 mg/day, Month 4, baseline 25), 3.
